ChEMBL document CHEMBL1201862, “PubChem BioAssay data set” (2004)
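Following 48 hours of exposure in 96-well plates, responses at five concentrations were used to interpolate endpoints linearly. GI50 marks 50% less growth.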 Active and inactive are the calls of the source. Cut-off read from the data, not from the text of the source: active = GI50 up to about 1.1 µM and inactive = higher.

What was measured:
Experiment in all cases: growth of human tumour cells (NCI), 48 h
SW-620 = test system: SW-620
UACC-257 = test system: UACC-257
HCT-116 = test system: HCT-116
TK-10 = test system: TK-10
HOP-62 = test system: HOP-62
OVCAR-3 = test system: OVCAR-3
NCI-H23 = test system: NCI-H23
786-0 = test system: 786-0
SNB-75 = test system: SNB-75
HOP-92 = test system: HOP-92
ACHN = test system: ACHN
IGROV-1 = test system: IGROV-1
EKVX = test system: EKVX
M14 = test system: M14
SK-MEL-5 = test system: SK-MEL-5
PC-3 = test system: PC-3
Hs-578T = test system: Hs-578T
MDA-MB-435 = test system: MDA-MB-435
T47D = test system: T47D
BT-549 = test system: BT-549

Measured: GI50

CCOC(=O)C1N(S(=O)(=O)c2ccc(C)cc2)CCC12c1ccccc1N(C(C)=O)C2C(/C=C/C(=O)OC)=C/C(=O)OC (stereo not drawn)
inactive: SW-620 > 100 µM | UACC-257 > 100 µM | HCT-116 > 100 µM | TK-10 > 100 µM | HOP-62 > 100 µM | OVCAR-3 > 100 µM | NCI-H23 > 100 µM | 786-0 > 100 µM | SNB-75 > 100 µM | HOP-92 44.1 µM | ACHN > 100 µM | IGROV-1 > 100 µM | EKVX > 100 µM | M14 > 100 µM | SK-MEL-5 > 100 µM

NC(=O)ON=C1CCN(Cc2ccccc2)CC1
inactive: SW-620 > 100 µM | UACC-257 > 100 µM | HCT-116 > 100 µM | PC-3 > 100 µM | Hs-578T > 100 µM | MDA-MB-435 > 100 µM | TK-10 29.9 µM | HOP-62 > 100 µM | OVCAR-3 > 100 µM | NCI-H23 > 100 µM | 786-0 > 100 µM | T47D > 100 µM | SNB-75 74.8 µM | HOP-92 > 100 µM | ACHN > 100 µM | IGROV-1 > 100 µM | EKVX > 100 µM | M14 > 100 µM | SK-MEL-5 > 100 µM

CCOC(=O)C12OC(OCC)(CC1(OCC)OCC)C1(CC1)C2=O (stereo not drawn)
inactive: BT-549 > 100 µM | SW-620 > 100 µM | UACC-257 > 100 µM | HCT-116 > 100 µM | PC-3 > 100 µM | MDA-MB-435 > 100 µM | TK-10 > 100 µM | HOP-62 > 100 µM | OVCAR-3 > 100 µM | NCI-H23 > 100 µM | 786-0 > 100 µM | SNB-75 > 100 µM | HOP-92 > 100 µM | ACHN > 100 µM | IGROV-1 > 100 µM | EKVX > 100 µM | M14 > 100 µM | SK-MEL-5 > 100 µM

CN1C(=O)C(O)CC1c1cccc(F)c1 (stereo not drawn)
inactive: BT-549 > 100 µM | SW-620 > 100 µM | UACC-257 > 100 µM | HCT-116 > 100 µM | PC-3 > 100 µM | MDA-MB-435 > 100 µM | HOP-62 > 100 µM | OVCAR-3 > 100 µM | NCI-H23 > 100 µM | 786-0 > 100 µM | SNB-75 55.7 µM | HOP-92 > 100 µM | ACHN > 100 µM | IGROV-1 > 100 µM | EKVX > 100 µM | M14 > 100 µM | SK-MEL-5 > 100 µM

N#CC(C(=O)CCC(=O)C(C#N)c1ccccc1)c1ccccc1 (stereo not drawn)
inactive: SW-620 > 100 µM | UACC-257 > 100 µM | HCT-116 > 100 µM | TK-10 > 100 µM | HOP-62 > 100 µM | OVCAR-3 > 100 µM | NCI-H23 > 100 µM | 786-0 > 100 µM | SNB-75 > 100 µM | HOP-92 > 100 µM | ACHN > 100 µM | IGROV-1 > 100 µM | EKVX > 100 µM | M14 > 100 µM | SK-MEL-5 > 100 µM

COc1ccc2c(c1)OCC1Cc3cc4c(cc3OC21)OCO4 (stereo not drawn)
inactive: BT-549 61 µM | SW-620 35.7 µM | UACC-257 30.2 µM | HCT-116 31 µM | PC-3 41.6 µM | MDA-MB-435 7.73 µM | TK-10 28.1 µM | HOP-62 41.2 µM | OVCAR-3 47.9 µM | NCI-H23 > 100 µM | 786-0 34.8 µM | T47D 32.1 µM | HOP-92 > 100 µM | ACHN 97.3 µM | IGROV-1 43 µM | EKVX 41.1 µM | M14 32.1 µM | SK-MEL-5 16.8 µM

CC(=O)NCc1nc(C#N)c(N)o1
inactive: SW-620 > 100 µM | UACC-257 > 100 µM | HCT-116 > 100 µM | PC-3 > 100 µM | Hs-578T > 100 µM | MDA-MB-435 > 100 µM | TK-10 > 100 µM | HOP-62 > 100 µM | OVCAR-3 > 100 µM | NCI-H23 > 100 µM | 786-0 > 100 µM | T47D > 100 µM | SNB-75 > 100 µM | HOP-92 > 100 µM | ACHN > 100 µM | IGROV-1 8.95 µM | EKVX > 100 µM | M14 > 100 µM

c1ccc(-n2nc3ccc4nonc4c3n2)cc1
inactive: SW-620 > 100 µM | UACC-257 > 100 µM | HCT-116 > 100 µM | PC-3 > 100 µM | MDA-MB-435 > 100 µM | TK-10 > 100 µM | HOP-62 > 100 µM | OVCAR-3 > 100 µM | NCI-H23 > 100 µM | 786-0 > 100 µM | T47D > 100 µM | SNB-75 49.1 µM | HOP-92 > 100 µM | ACHN > 100 µM | IGROV-1 > 100 µM | EKVX 44.6 µM | M14 > 100 µM | SK-MEL-5 > 100 µM
